Earlier results, collected in patent US9820991B2, “Pharmaceutical composition comprising brinzolamide” (SENTISS PHARMA PVT. LTD., priority 2013, dated 2017).

Settings: in tear fluid

CCN[C@H]1CN(CCCOC)S(=O)(=O)c2sc(S(N)(=O)=O)cc21 [brinzolamide, (R)-(+)-4-Ethylamino-2-(3-methoxypropyl)-3,4-dihydro-2H-thieno [3,2-e]-1,2-thiazine-6-sulfonamide-1,1-dioxide]
solubility: around 0.08%
